± gives the standard deviation of the averaged measurements.
Tests used:
Assay in all cases: level (log10 ratio to DMSO vehicle control); higher = higher biomarker level / cell amount than vehicle control
Conditions in all cases: in DMSO
[1] = compound: NS(=O)(=O)C(F)(F)C(F)(F)C(F)(F)C(F)(F)C(F)(F)C(F)(F)F [Perfluorohexanesulfonamide]
Method: (§1)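 BioMAP Diversity Plus panel of 12 human primary cell co-culture systems (3C, 4H, LPS, SAg, BT, BF4T, BE3C, CASM3C, HDF3CGF, KF3CT, MyoF, Mphg). Compounds were added 1 h before stimulation and left for 24 h (MyoF 48 h; BT 72 h for soluble read-outs or 6 d for IgG). Biomarkers were read by ELISA, cytotoxicity by SRB, PBMC viability and proliferation by Alamar Blue. Each well value was divided by the mean of 8 DMSO control wells on the same plate and log10 transformed; duplicate blinded samples were tested at 4 concentrations.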

[2] = compound: NC(=O)C(F)(F)C(F)(F)C(F)(F)C(F)F
Method: as §1

[3] = compound: O=S(=O)(O)C(F)(F)C(F)(F)C(F)(F)C(F)(F)C(F)(F)C(F)(F)C(F)(F)C(F)(F)C(F)(F)C(F)(F)F [Sodium perfluorodecanesulfonate]
Method: as §1

[4] = compound: O=S(=O)(F)C(F)(F)C(F)(F)C(F)(F)C(F)(F)C(F)(F)C(F)(F)C(F)(F)C(F)(F)F [Perfluorooctanesulfonyl fluoride]
Method: as §1

[5] = compound: FC(F)(F)C(F)(F)CNCC(F)(F)C(F)(F)F [Bis(1H,1H-perfluoropropyl)amine]
Method: as §1

Test System | level (log10) ([1]; 6700 nM) | level (log10) ([1]; 20000 nM) | level (log10) ([1]; 60000 nM) | level (log10) ([2]; 6700 nM) | level (log10) ([2]; 20000 nM) | level (log10) ([2]; 60000 nM) | level (log10) ([3]; 1500 nM) | level (log10) ([3]; 4400 nM) | level (log10) ([3]; 13000 nM) | level (log10) ([3]; 40000 nM) | level (log10) ([4]; 6700 nM) | level (log10) ([4]; 20000 nM) | level (log10) ([4]; 60000 nM) | level (log10) ([5]; 6700 nM) | level (log10) ([5]; 20000 nM) | level (log10) ([5]; 60000 nM)
BE3C:CD54/ICAM-1 | -0.0105 ± 0.025 | 0.003 ± 0.0028 | 0.017 ± 0.013 | -0.006 ± 0.0042 | -0.002 ± 0.0042 | 0.0155 ± 0.016 | 0.0015 ± 0.029 | -0.0075 ± 0.00071 | 0.034 | 0.0425 ± 0.011 | -0.0035 ± 0.019 | -0.0055 ± 0.0092 | 0.0045 ± 0.026 | -0.012 ± 0.0085 | -0.008 ± 0.0099 | 0.0085 ± 0.044
BE3C:CD87/uPAR | 0.0005 ± 0.0035 | -0.0055 ± 0.018 | -0.13 ± 0.018 | -0.02 ± 0.011 | -0.0205 ± 0.0035 | -0.0145 ± 0.015 | 0.029 ± 0.011 | 0.066 ± 0.02 | 0.005 ± 0.0014 | -0.179 ± 0.011 | -0.0005 ± 0.011 | 0.0155 ± 0.00071 | 0.0375 ± 0.0064 | -0.0335 ± 0.049 | -0.0475 ± 0.06 | -0.012 ± 0.018
BE3C:CXCL9/MIG | -0.0025 ± 0.0064 | -0.0005 ± 0.0078 | -0.0065 ± 0.0078 | 0.012 ± 0.024 | 0.009 ± 0.0071 | 0.006 ± 0.0085 | 0.016 ± 0.0042 | 0.008 ± 0.0085 | 0.014 ± 0.0085 | 0.0005 ± 0.0092 | 0.0035 ± 0.005 | -0.0025 ± 0.0064 | 0.007 ± 0.017 | -0.0065 ± 0.0035 | -0.0055 ± 0.00071 | 0.005 ± 0.021
BE3C:CXCL10/IP-10 | -0.016 ± 0.04 | -0.086 ± 0.042 | -0.235 ± 0.047 | 0.0025 ± 0.0064 | -0.0015 ± 0.016 | 0.007 ± 0.013 | -0.0045 ± 0.029 | -0.0165 ± 0.0021 | -0.076 ± 0.0042 | -0.201 ± 0.013 | 0.0095 ± 0.035 | 0.0115 ± 0.025 | 0.008 ± 0.03 | -0.017 ± 0.035 | -0.0075 ± 0.028 | -0.001 ± 0.0028
BE3C:EGFR | 0.023 ± 0.0057 | 0.0205 ± 0.033 | 0.014 ± 0.017 | 0.0055 ± 0.019 | 0.0065 ± 0.032 | -0.008 ± 0.0099 | 0.0185 ± 0.0035 | 0.0015 ± 0.0064 | -0.022 ± 0.014 | -0.032 ± 0.027 | 0.0125 ± 0.0064 | 0.017 ± 0.025 | -0.0095 ± 0.012 | -0.011 ± 0.014 | -0.008 ± 0.0057 | 0.0065 ± 0.021
BE3C:HLA-DR | -0.01 ± 0.0042 | -0.032 ± 0.018 | -0.0685 ± 0.018 | 0.0065 ± 0.016 | 0.008 ± 0.0057 | -0.0025 ± 0.023 | 0.0005 ± 0.013 | -0.02 ± 0.014 | -0.0755 ± 0.032 | -0.406 ± 0.041 | -0.0105 ± 0.012 | -0.0125 ± 0.011 | -0.01 ± 0.011 | -0.0025 ± 0.012 | -0.0115 ± 0.0021 | 0.012 ± 0.031
BF4T:CCL2/MCP-1 | -0.0415 ± 0.018 | -0.072 ± 0.0085 | -0.107 ± 0.0042 | 0.008 ± 0.0042 | -0.0135 ± 0.0092 | 0.0165 ± 0.047 | 0.0015 ± 0.011 | 0.008 ± 0.018 | 0.0125 ± 0.043 | 0.051 ± 0.0042 | 0.006 ± 0.0071 | -0.0425 ± 0.0064 | -0.0055 ± 0.037 | -0.004 ± 0.014 | -0.009 ± 0.027 | -0.0295 ± 0.015
BF4T:CCL26/Eotaxin-3 | -0.017 ± 0.018 | -0.064 ± 0.0028 | -0.151 ± 0.012 | -0.001 ± 0.0085 | -0.012 ± 0.033 | 0.0005 ± 0.018 | -0.0815 ± 0.026 | -0.131 ± 0.0078 | -0.23 ± 0.066 | -0.298 ± 0.013 | -0.0265 ± 0.021 | 0.0035 ± 0.016 | -0.014 ± 0.016 | -0.0275 ± 0.026 | -0.0245 ± 0.0021 | -0.0055 ± 0.053
